According to US20050130232A1, “Methods of screening for compounds that modulate hormone receptor activity” (Allergan, Inc., priority 2001, published 2005):

How the values were obtained:
[1] = biological target: T1, protein kinase A activity associated with RXRα (Homo sapiens, UniProt P19793); assay: Protein kinase A activity in anti-Flag immunoprecipitates of PH-RXRα or RXRα transfected HEK 293 cells, synthetic peptide substrate; type: cell-based; conditions: Flag-RXRα lacking pleckstrin homology domain, 10^-7 M, substrate LRRASLG, vs control vehicle
T1 sequence (P19793 1-462): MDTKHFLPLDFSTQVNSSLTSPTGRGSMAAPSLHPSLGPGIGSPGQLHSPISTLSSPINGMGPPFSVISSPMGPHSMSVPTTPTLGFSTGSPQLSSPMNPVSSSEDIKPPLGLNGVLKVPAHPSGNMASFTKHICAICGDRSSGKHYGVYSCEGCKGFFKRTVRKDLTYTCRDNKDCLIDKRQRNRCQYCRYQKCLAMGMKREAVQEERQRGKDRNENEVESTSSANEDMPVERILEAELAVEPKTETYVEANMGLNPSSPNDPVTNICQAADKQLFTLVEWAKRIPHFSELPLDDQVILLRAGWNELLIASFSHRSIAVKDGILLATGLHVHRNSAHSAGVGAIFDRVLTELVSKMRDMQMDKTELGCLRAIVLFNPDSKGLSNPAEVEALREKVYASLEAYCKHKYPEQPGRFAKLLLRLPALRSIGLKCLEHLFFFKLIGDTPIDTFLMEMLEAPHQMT
Method: 293 cells were transfected with PH-RXRα. Sample 1: 0.1% DMSO (10 minutes). […] Sample 3: 0.1% DMSO (30 minutes).
Sample 1: 0.1% DMSO (10 minutes). […] Sample 3: 0.1% DMSO (30 minutes). […] Sample 5: No immunoprecipitate.
Sample 1: 0.1% DMSO. […] Sample 3: 0.1% DMSO with PKA inhibitor. […] Sample 5: 0.1% DMSO.
Following immunoprecipitation with anti-Flag antibody, the synthetic PKA substrate, LRRASLG (SEQ ID NO: 59), was added to the immunoprecipitate along with γ-ATP.
HEK 293 were cultured and transfected essentially as described above. Immunoprecipitates were prepared using the anti-Flag antibody, M2, as described above. Assays for protein kinase A activity were performed as follows. Immunoprecipitated complexes were resuspended in 40 μl of Kinase Assay Buffer (30 mM Tris-HCl, pH 7.4 and 10 mM MgCl2). Kinase reactions were initiated by addition of 10 μl of 500 μM synthetic peptide LRRASLG (SEQ ID NO: 59) or […] (SEQ ID NO: 60) prepared by Upstate Biotechnology (Lake Placid, N.Y.) and addition of 50 μM [γ-^32P]ATP (10 μCi) to the immune-complexes. […]
Incorporated ^32P was separated from free label by applying the reaction mixture onto P81 phosphocellulose paper and subsequently washing the paper three times with 0.75% phosphoric acid and once with acetone. Protein kinase reaction samples were analyzed in a scintillation counter to determine the amount of ^32P-incorporation.

[2] = biological target: protein kinase A activity associated with endogenous RXRα (Mus musculus, UniProt P28700); conditions: 3T3-L1 adipocytes, 10^-7 M, vs vehicle-treated cells
Chain of protein kinase A activity associated with endogenous RXRα (P28700 whole entry): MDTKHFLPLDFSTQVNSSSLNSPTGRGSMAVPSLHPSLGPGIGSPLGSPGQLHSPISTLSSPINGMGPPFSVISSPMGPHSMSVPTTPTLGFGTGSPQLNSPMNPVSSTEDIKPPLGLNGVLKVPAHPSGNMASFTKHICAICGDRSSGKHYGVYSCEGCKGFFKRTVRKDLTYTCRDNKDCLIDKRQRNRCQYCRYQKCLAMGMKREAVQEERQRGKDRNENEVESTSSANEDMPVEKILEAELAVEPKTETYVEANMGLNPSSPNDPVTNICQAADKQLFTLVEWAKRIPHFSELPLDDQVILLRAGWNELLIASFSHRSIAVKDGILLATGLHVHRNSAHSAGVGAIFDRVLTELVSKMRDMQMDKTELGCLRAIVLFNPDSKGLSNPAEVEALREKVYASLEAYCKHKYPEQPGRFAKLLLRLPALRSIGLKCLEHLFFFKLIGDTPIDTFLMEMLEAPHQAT
Method: Kinase activity was determined in the immunoprecipitate using kemptide (LRRASLG; SEQ ID NO: 59) as a substrate. Samples 1,3: 0.1% DMSO (10 minutes).
Kinase activity in the immunoprecipitates was determined as described above using γ-ATP and synthetic peptide SEQ ID NO: 59.

[3] = system: protein kinase A activity associated with RXRα (Homo sapiens); assay: PKA activity in S293 cells overexpressing the catalytic subunit of PKA; type: cell-based
Text: Sample 1: No ligand; immunoprecipitation with beads only. […] Sample 3: No ligand; immunoprecipitation with anti-FLAG antibody. […] Sample 5: No ligand; immunoprecipitation with beads only. […] Sample 7: No ligand; immunoprecipitation with anti-PKA antibody.
S293 cells (HEK293 cells stably overexpressing RXRα) were transfected with the pFC-PKA expression vector encoding the catalytic subunit of protein kinase A and with Flag-tagged PH-RXRα essentially as described above. This commercially available expression vector expresses the catalytic subunit of murine protein kinase A under control of the CMV promoter (Stratagene; San Diego, Calif.).

RXRα = biological target: T2, RXRα (Homo sapiens, UniProt P19793); assay: In vivo metabolic labeling with [32P]orthophosphate of Flag-RXR transfected HEK 293 cells; type: cell-based; parameters: expressed in transfected cells; host or cells: HEK 293; conditions: [32P]orthophosphate labeling, ligand 10 minutes
T2 sequence (P19793 1-462): T1 sequence (P19793 1-462)
Text: (A) AGN194204-dependent protein kinase activity in Flag-RXR immunocomplexes, which were immunoprecipitated from transfected cells using antibody against the “Flag” epitope tag fused to the RXR receptor. […] Total cell lysates were immunoprecipitated with anti-Flag antibody (M2). Aliquots of the immunocomplexes were used for the in vitro kinase reaction with [γ-^32P]ATP and separated on SDS-PAGE. Phosphorylated proteins were detected by autoradiography (top panel). Additional aliquots of the immunocomplexes were subjected to immunoblotting with polyclonal anti-RXR antisera (D20; bottom panel). (B) Phosphoamino acid analysis. Flag-RXR and the 160-kDa protein were phosphorylated in vitro and separated on SDS-PAGE as described above, then transferred onto PVDF membrane, detected by autoradiography, and cut out for hydrolysis with acid (6 N HCl). The phosphorylated amino acids and standards (P-Ser, P-Thr, and P-Tyr) were separated by thin-layer chromatography. Positions of the standards P-Ser, P-Thr, and P-Tyr were visualized by ninhydrin staining and are indicated by arrows. (C) In vivo metabolic labeling of transfected HEK 293 cells. […] Cells were washed with phosphate-free medium and starved for 90 minutes before incubation with [^32P]orthophosphate for another 4 hours. […] Phosphorylated proteins were detected by autoradiography. […]

[4] = biological target: association between RXRα and PKA (Homo sapiens, UniProt P19793); assay: Co-immunoprecipitation of RXRα and catalytic subunit of PKA; type: cell-based; conditions: cells overexpressing PKA catalytic subunit, 10^-7 M
Method: Left panel: Cells were immunoprecipitated with anti-FLAG antibody, and the immunoprecipitates analyzed by SDS-PAGE and blotting with anti-PKA antibody. Right panel: Cells were immunoprecipitated with anti-PKA antibody, and the immunoprecipitates analyzed by SDS-PAGE and blotting with anti-FLAG antibody. […] PKA I and PKC I indicate inhibitors of PKA and PKC, respectively.
Immunoprecipitations with anti-Flag antibody were performed as described above. Immunoprecipitations with anti-PKA antibody (Transduction Laboratories; Lexington, Kentucky) were performed according to manufacturer's protocol. Western blotting with anti-PKA antibody and anti-Flag antibody also were performed according to manufacturer's protocol.

In the case of `CC(/C=C/[C@@H]1C[C@]1(C)c1ccc2c(c1)C(C)(C)CCC2(C)C)=C\C(=O)O` [AGN194204], the “protein kinase A activity associated with RXRα” value [1] is reported as “significantly enhanced”, the “PKA activity associated with endogenous RXRα” value [2] is reported as “increased about two-fold” and the “protein kinase A activity in immunoprecipitates” value ([3]; immunoprecipitation with anti-Flag antibody) is reported as “dramatic increase”. The “protein kinase A activity in immunoprecipitates” value ([3]; immunoprecipitation with anti-PKA antibody) was “only a marginal ligand-dependent increase”, the “in vivo phosphorylation of RXRα” value (RXRα) was “stimulated” and the “amount of protein kinase A associated with RXRα” value [4] was “did not increase the amount of protein kinase A associated with receptor”.
